Results reported in ChEMBL document CHEMBL2151013, “Diarylheptanoid sulfates and related compounds from Myrica rubra bark” (J Nat Prod, 2012).
In brackets after ≈: the same amount, converted by molar mass.

What was measured:
[1] = Antioxidant activity assessed as superoxide dismutase-like activity by SOD-WST assay; type: functional
[2] = Antioxidant activity assessed as trolox equivalent of […]-induced radical scavenging activity by ORAC fluorescence assay; type: functional

SMILES | IC50 [1] [µg/mL] | Activity [2] [µmolequiv/g]
COc1c2cc(c(O)c1OC)CCCCC(=O)CCc1ccc(O)c-2c1 [MYRICANONE] | > 1000 | –
COC1=C(OC)C(=O)C2=C(CCCCC(O)CCc3ccc(O)c2c3)C1=O (stereo not drawn) [ACTINIDIONE] | 7.9 (≈ 21.2 µM) | –
O=c1c(O)c(-c2cc(O)c(O)c(O)c2)oc2cc(O)cc(O)c12 [MYRICETIN] | 139.6 (≈ 439 µM) | 16100
COc1c2cc(c(O)c1OC)CCCC[C@@H](O)CCc1ccc(O)c-2c1 | > 100 | –
O=C(O[C@@H]1[C@@H](c2c(O)cc(O)c3c2O[C@H](c2cc(O)c(O)c(O)c2)[C@H](OC(=O)c2cc(O)c(O)c(O)c2)C3)c2c(O)cc(O)cc2O[C@@H]1c1cc(O)c(O)c(O)c1)c1cc(O)c(O)c(O)c1 | 19.2 (≈ 21 µM) | –
COc1c2cc(c(O[C@@H]3O[C@H](COC(=O)c4cc(O)c(O)c(O)c4)[C@@H](O)[C@H](O)[C@H]3O)c1OC)CCCCC(=O)CCc1ccc(O)c-2c1 | 106.8 (≈ 159 µM) | –
COc1c2cc(c(O[C@@H]3O[C@H](COC(=O)c4cc(O)c(O)c(O)c4)[C@@H](O)[C@H](O)[C@H]3O)c1OC)CCCC[C@H](O)CCc1ccc(O)c-2c1 | 139.6 (≈ 208 µM) | –
O=C(O)c1cc(O)c(O)c(O)c1 [GALLIC ACID] | 6.3 (≈ 37 µM) | –
C[C@@H]1O[C@@H](Oc2c(-c3cc(O)c(O)c(O)c3)oc3cc(O)cc(O)c3c2=O)[C@H](OC(=O)c2cc(O)c(O)c(O)c2)[C@H](O)[C@H]1O | 38.6 (≈ 62.6 µM) | –
COc1c2cc(c(O[C@@H]3O[C@H](COC(=O)c4cc(O)c(O)c(O)c4)[C@@H](O)[C@H](O)[C@H]3O)c1OC)CCCC[C@@H](O)CCc1ccc(O)c-2c1 | 90.5 (≈ 135 µM) | –
O=C(O[C@@H]1Cc2c(O)cc(O)cc2O[C@@H]1c1cc(O)c(O)c(O)c1)c1cc(O)c(O)c(O)c1 [EPIGALOCATECHIN GALLATE] | 26.1 (≈ 56.9 µM) | –
COc1c2cc(c(O)c1OC)CCCC[C@@H](OS(=O)(=O)O)CCc1ccc(O)c-2c1 | 786.9 (≈ 1790 µM) | 8680
COc1cc2cc(c1O)-c1cc(ccc1O)CC[C@@H](OS(=O)(=O)O)CCCC2 | > 1000 | 9620
C[C@H]1O[C@@H](Oc2c(-c3cc(O)c(O)c(O)c3)oc3cc(O)cc(O)c3c2=O)[C@@H](O)[C@@H](O)[C@@H]1O [MYRICITRIN] | 127.5 (≈ 275 µM) | 13200
